Experimental data as given in patent publication US20190367871A1, “EMBRYONIC STEM CELL MEDIA AND CULTURE” (YISSUM RESEARCH DEVELOPMENT COMPANY OF THE HEBREW …, priority 2018, published 2019).

What was measured:
hESCs [1] = assay: Effect of Bax inhibition on hESC growth (CellTiter-Glo luminescence); format: cell-based, human; conditions: 100 or 200 uM, after 24 hours, vs 0 uM
Procedure: Next, we examined the effect of Bax inhibition on hESC growth. hESCs were treated with either 0, 100, or 200 uM of BAX-inhibiting peptide V5 (BIP-V5, Sigma). At time point zero when the peptide was added CellTiter-Glo reagent was also added to the cells and luminescence was measured with a plate reader. Bax inhibition increased the relative growth of the hESCs by 15-25% after 24 hours (FIG. 13).

[2] = target: Bax (BCL2 associated X, apoptosis regulator) (human) (UniProt Q07812); assay: cell-based or functional assay
diploid hESCs = assay: Growth curve of hESCs (CellTiter-Glo luminescent cell viability assay); format: cell-based, human
Procedure: All genes were targeted with commercial pooled siRNAs to increase the specificity of the knockdown. esiRNAs for SALL4, DSCC1 and SEPHS1 and the control esiRNA for Renilla luciferase were obtained from Sigma (cat. nos. EHU037061, EHU021301, EHU107861 and EHURLUC, respectively). siRNA for VRTN was obtained from GE Healthcare Dharmacon (cat. no. L-021159-02-0005). Briefly, 30-50 nM siRNA was mixed with 0.14 μl of DharmaFECT 1 transfection reagent (GE Healthcare Dharmacon) in Opti-MEM I reduced serum medium (Thermo Fisher Scientific) for 30 min. The transfection mix was added on a matrigel-coated well of a 96-well plate and 3,000 hESCs were plated on the transfection mix in the presence of mTeSR 1 medium. The cells were subsequently grown for 3-4 days and the mTeSR 1 medium was replaced every 24 h. Cell viability was assessed by a CellTiter-Glo luminescent cell viability assay according to the manufacturer's instructions (Promega). Luminescence reads for the target genes were normalized to control siRNA conditions, and the replicate experiments were averaged. For growth curves of IGF1-treated and control hESCs, cells were plated in matrigel-coated wells with equal numbers and their density was measured for four consecutive days with CellTiter-Glo luminescent cell viability assay (Promega). The density measured one day after plating was considered Day 0, after which cells were switched to MEF-conditioned medium containing 100 ng ml^−1 IGF1. Every day was normalized to Day 0 and replicate experiments were averaged.

hESCs [3] = assay: Apoptosis assay (Annexin V / PI flow cytometry); format: cell-based, human; conditions: IGF1-treated vs control diploid hESCs
Source text: hESCs were trypsinized gently with TrypLE Select. Apoptotic cells were labelled with Annexin V and propidium iodide (PI) using the MEBCYTO Apoptosis Kit according to the manufacturer's instructions (MBL). Labelled cells were filtered through a 70 μm cell strainer and analysed in BD FACSAria III for the proportion of annexin V-positive cells.

hESCs [4] = assay: Cell-cycle profile by PI staining and flow cytometry; format: cell-based, human; conditions: IGF1-treated vs control diploid hESCs
Procedure: PI staining was performed as described in Sagi, I., Egli, D. & Benvenisty, N. Identification and propagation of haploid human pluripotent stem cells. Nat. Protoc. 11, 2274-2286 (2016). Briefly, hESCs were trypsinized with TrypLE Select and fixed with cold methanol (4° C.). Fixed cells were treated with 200 μg ml^−1 RNase A (Sigma) for 30 min and stained with 50 μg ml^−1 PI for 5 min. Stained cells were filtered through a 70 μm cell strainer and analysed in BD FACSAria III for their cell-cycle profile.

hESCs [5] = assay: TRA-1-60 immunocytochemistry (flow cytometry of TRA-1-60-positive pluripotent cells); format: cell-based, human; conditions: IGF1-treated vs control diploid hESCs
Procedure: hESCs were trypsinized with TrypLE Select. Cells were collected in cold PBS containing 10% KSR, centrifuged at 300 g for 5 min and resuspended in 200 μl PBS containing 10% KSR. PE-conjugated mouse anti-human TRA-1-60 antibody (1:40, BD Biosciences) was then incubated with the cells for 30 min at 4° C. Cells were washed with PBS containing 10% KSR twice, centrifuged at 300 g at 4° C. and resuspended in PBS with 10% KSR. Immunolabelled cells were filtered through a 70 μm cell strainer and analysed in BD FACSAria III for the proportion of TRA-1-60-positive cells.

[6] = tested on: human foreskin fibroblasts; assay: Growth of fibroblasts under mTOR inhibitor treatment (CellTiter-Glo); format: cell-based; conditions: two days of treatment, low nanomolar concentrations

Sequence of UniProt Q07812 (Q07812 whole entry): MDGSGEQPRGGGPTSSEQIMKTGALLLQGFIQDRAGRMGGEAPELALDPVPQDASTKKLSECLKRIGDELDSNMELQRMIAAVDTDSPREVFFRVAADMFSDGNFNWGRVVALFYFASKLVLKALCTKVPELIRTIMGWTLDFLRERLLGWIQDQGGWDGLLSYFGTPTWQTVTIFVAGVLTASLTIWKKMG

Compound: BAX-inhibiting peptide V5 [BIP-V5]
- increase in relative growth of hESCs (hESCs [1]): 15-25%

Compound: BAX-inhibiting peptide V5
- relative growth of hESCs (CellTiter-Glo luminescence) after 24 hours [2]: 15 to 25%

Compound: insulin like growth factor 1 [IGF1]
- growth rate of diploid hESCs (diploid hESCs; IGF1 100 ng ml^-1 in MEF-conditioned medium, especially low levels of KSR, vs untreated control): significantly increased the growth rate
- rescue of rapamycin growth-inhibition of hESCs (diploid hESCs; rapamycin + IGF1 vs rapamycin alone): failed to rescue
- percentage of apoptotic hESCs (hESCs [3]): significantly decreases the percentage of apoptotic hESCs
- cell-cycle (cells in G2/M phase) (hESCs [4]): not affecting
- differentiation dynamics (TRA-1-60+ pluripotent cells) (hESCs [5]): not affecting

Compound: CCC(=O)N1CCN(c2ccc(-n3c(=O)ccc4cnc5ccc(-c6cnc7ccccc7c6)cc5c43)cc2C(F)(F)F)CC1 [Torin 1, reference compound]
- growth and survival of hESCs (diploid hESCs; two days of treatment, low nanomolar concentrations): completely abolished
- growth inhibition of fibroblasts [6]: up to 60%
